The source made the active and inactive calls.
Legend:
[1] = target: T1, Polyadenylate-binding protein 1 (Homo sapiens, UniProt P11940); experiment: MLLE binding blockers, Cy5 peptide tracer – biochemical, fluorescence polarization, Cy5-PAM2 peptide, secondary, miRNA deadenylation inhibitor project, dose response (AID 602260); assay type: functional; conditions: read-out: IC50_Mean
[2] = target: T1, Polyadenylate-binding protein 1; experiment: MLLE domain peptide-binding blockers, IC50 – biochemical, fluorescence polarization, FITC-PAM2 peptide, dose response (AID 602259); assay type: functional; conditions: read-out: IC50_Mean
[3] = test system: INS1; experiment: INS-1E survival protection against cytokine death – cell-based, luminescence, retest, dose response (AID 449756); assay type: functional; conditions: Rattus norvegicus;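 also: cell death triggered by IL-1 beta plus TNF-alpha plus IFN-gamma mixture; protective hits raise ATP signal compared with cytokine alone wells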
[4] = target: FAD-linked sulfhydryl oxidase ALR (Homo sapiens, UniProt P55789); experiment: ALR-catalysed DTT oxidation blockers – biochemical, H2O2 detection, luminescence, cherry-pick, dose response (AID 493248)
Chain of FAD-linked sulfhydryl oxidase ALR (P55789 whole entry): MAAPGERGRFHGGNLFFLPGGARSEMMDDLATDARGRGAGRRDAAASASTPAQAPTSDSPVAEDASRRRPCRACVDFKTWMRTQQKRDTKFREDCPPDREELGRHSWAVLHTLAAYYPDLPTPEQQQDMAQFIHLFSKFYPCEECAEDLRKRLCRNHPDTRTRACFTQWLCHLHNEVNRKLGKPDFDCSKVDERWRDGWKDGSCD

[5] = target: T2, Fatty acid synthase (Homo sapiens, UniProt P49327); experiment: inhibition of human FAS-TE enzyme activity – biochemical, endpoint fluorescence intensity, uHTS hits, dose response (AID 624327); assay type: functional;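 also: fluorescence from hydrolysis of an O-methyl fluorescein acyl ester substrate by the enzyme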
T2 sequence (P49327 whole entry): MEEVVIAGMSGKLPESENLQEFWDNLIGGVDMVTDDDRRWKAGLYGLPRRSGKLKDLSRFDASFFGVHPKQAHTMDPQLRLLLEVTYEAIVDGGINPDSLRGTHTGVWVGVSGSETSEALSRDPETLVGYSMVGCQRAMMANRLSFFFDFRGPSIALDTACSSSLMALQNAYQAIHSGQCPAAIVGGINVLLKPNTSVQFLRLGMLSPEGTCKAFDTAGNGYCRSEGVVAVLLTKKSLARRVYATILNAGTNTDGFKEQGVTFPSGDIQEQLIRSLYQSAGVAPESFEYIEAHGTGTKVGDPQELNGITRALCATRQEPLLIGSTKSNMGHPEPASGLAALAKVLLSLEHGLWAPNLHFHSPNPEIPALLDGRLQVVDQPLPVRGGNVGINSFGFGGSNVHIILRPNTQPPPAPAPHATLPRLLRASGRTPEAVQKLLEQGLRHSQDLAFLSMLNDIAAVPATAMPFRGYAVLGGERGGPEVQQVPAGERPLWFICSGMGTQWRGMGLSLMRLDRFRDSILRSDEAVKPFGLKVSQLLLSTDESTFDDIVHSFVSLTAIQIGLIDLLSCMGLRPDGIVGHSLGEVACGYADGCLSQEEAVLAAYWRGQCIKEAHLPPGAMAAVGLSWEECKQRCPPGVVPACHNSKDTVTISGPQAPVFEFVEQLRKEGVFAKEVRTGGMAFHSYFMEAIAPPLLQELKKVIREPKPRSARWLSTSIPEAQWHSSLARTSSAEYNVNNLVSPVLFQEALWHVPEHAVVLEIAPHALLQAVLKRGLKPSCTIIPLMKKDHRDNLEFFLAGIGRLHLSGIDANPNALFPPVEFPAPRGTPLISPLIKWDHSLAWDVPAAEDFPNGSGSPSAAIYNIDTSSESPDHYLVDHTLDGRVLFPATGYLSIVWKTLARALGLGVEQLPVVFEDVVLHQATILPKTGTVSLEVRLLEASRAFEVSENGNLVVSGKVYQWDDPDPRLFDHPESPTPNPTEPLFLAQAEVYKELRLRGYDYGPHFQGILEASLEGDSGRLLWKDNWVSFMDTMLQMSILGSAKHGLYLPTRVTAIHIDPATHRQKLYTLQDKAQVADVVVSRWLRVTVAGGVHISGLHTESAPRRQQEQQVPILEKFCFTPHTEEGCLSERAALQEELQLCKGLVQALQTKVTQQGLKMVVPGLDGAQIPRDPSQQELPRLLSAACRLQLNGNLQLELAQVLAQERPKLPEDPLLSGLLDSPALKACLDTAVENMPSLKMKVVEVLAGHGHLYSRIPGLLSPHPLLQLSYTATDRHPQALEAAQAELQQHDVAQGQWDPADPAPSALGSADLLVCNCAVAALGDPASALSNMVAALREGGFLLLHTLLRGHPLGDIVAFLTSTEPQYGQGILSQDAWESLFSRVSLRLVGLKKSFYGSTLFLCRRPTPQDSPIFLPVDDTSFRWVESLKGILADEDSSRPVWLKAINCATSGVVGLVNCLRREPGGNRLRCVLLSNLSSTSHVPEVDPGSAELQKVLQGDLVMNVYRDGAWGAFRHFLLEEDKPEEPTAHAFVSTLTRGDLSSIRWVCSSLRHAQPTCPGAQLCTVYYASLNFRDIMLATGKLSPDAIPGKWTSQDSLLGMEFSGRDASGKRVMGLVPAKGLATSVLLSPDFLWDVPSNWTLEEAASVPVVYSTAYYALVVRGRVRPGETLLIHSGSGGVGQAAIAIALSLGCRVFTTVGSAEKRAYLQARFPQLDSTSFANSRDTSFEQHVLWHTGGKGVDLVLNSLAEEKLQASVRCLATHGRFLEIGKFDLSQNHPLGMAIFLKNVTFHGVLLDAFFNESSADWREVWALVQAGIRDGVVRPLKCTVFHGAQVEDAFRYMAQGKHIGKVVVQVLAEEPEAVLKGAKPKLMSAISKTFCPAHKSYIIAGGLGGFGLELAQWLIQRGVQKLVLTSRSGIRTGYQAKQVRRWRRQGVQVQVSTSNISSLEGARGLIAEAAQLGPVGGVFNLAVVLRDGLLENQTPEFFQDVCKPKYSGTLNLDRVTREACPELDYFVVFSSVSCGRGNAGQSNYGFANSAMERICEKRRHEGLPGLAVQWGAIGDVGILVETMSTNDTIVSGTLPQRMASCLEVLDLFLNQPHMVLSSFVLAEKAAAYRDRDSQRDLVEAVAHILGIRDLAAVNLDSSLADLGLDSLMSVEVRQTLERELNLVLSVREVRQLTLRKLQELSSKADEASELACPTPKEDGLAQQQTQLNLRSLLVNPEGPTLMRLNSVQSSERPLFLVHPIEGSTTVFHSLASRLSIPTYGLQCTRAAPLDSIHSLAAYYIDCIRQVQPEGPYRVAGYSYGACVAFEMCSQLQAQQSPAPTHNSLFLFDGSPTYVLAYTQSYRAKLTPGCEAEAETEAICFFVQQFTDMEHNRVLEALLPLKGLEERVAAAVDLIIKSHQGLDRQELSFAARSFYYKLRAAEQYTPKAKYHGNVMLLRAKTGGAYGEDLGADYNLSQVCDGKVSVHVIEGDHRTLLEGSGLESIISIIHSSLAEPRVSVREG

[6] = target: T2, Fatty acid synthase; experiment: inhibition of human FAS-TE enzyme activity – biochemical, kinetic fluorescence intensity, dose response (AID 624326); assay type: functional;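 also: rate of fluorescence rise from hydrolysis of a fluorogenic O-methyl fluorescein ester substrate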
[7] = target: T3, Heat shock factor protein 1 (Mus musculus, UniProt P38532); experiment: enhancement of HSF1-driven luciferase signal – cell-based, NIH3T3, luminescence, dose retest, confirmation (AID 435004); assay type: functional;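 also: stress induced by proteasome inhibitor MG132 added 30 min after compound; luciferase reporter driven by HSF1 response element in NIH3T3 cells; actives raise luminescence as potentiators of the MG132 stress response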
T3 sequence (P38532 whole entry): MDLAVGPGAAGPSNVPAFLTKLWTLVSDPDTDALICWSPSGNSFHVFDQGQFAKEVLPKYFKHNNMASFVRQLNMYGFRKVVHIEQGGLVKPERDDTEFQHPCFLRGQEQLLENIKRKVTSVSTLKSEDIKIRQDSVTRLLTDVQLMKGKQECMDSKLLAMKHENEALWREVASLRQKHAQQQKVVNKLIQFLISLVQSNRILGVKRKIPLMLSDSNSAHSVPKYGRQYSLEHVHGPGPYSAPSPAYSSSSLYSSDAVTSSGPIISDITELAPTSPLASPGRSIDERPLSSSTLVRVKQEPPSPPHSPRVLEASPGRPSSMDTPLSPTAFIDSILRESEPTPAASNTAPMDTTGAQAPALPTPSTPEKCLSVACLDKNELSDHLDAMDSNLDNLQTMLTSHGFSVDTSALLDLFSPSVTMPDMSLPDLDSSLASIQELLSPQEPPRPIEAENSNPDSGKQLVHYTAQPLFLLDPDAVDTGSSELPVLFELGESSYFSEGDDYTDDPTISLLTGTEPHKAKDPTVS

[8] = target: Paired box protein Pax-8 (Homo sapiens, UniProt Q06710); experiment: PAX8 transcriptional activity inhibition in RMG-I – RMG-I cells, luciferase, cherry-pick, dose response (AID 687027); assay type: functional, cell-based;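 also: luciferase reporter driven by Pax8 target thyroperoxidase promoter measured by SteadyGlo luminescence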
Chain of Paired box protein Pax-8 (Q06710 whole entry): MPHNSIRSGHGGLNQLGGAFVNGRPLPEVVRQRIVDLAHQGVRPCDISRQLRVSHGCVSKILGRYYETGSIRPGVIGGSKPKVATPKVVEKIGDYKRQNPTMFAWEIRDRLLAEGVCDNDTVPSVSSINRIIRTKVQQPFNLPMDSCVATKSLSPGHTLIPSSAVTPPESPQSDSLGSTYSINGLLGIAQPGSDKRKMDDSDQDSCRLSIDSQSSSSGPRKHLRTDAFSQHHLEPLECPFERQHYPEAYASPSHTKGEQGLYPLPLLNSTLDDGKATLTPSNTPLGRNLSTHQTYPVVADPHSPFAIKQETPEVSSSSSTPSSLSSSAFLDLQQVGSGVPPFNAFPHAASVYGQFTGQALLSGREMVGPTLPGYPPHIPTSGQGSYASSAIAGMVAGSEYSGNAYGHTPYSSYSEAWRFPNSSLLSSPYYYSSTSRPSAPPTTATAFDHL

T1 sequence (P11940 whole entry, the tested form may be a part): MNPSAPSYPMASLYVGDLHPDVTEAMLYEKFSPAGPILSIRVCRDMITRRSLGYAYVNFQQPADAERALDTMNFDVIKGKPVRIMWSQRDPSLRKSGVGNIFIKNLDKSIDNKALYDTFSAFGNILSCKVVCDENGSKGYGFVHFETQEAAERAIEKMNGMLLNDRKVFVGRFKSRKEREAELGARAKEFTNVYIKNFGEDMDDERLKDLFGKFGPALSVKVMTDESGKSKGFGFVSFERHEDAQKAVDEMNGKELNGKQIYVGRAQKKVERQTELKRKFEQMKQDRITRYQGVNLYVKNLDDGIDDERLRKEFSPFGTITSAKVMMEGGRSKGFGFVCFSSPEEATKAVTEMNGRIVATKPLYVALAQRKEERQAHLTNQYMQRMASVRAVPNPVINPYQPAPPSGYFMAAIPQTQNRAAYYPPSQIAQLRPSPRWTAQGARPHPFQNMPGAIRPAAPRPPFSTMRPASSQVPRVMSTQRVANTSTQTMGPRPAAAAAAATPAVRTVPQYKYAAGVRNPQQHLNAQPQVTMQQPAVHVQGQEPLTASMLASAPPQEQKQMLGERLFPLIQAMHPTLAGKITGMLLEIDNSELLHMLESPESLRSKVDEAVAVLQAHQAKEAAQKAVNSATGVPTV

CCN(CC(=O)Nc1c(F)cccc1F)C(=O)Cc1ccc2c(c1)CCC2 was tested, and the IC50 [1] was > 66 µM (inactive) and the IC50 [2] was > 66 µM (inactive).

With Cc1occc(=O)c1OC(=O)Nc1ccc(Cl)c(Cl)c1 the AC50 [3] was 5.88 µM (active).

For Nc1ccc(NC(=O)c2cccs2)cc1, the AC50 [4] was 0.515 µM (active).

In the case of CCOC(=O)N1CCN(Cc2c(O)ccc3ccccc23)CC1, the IC50 [1] is reported as > 66 µM (inactive) and the IC50 [2] is reported as > 66 µM (inactive).

With COc1ccc(C(=O)OCC(=O)Nc2ccccc2)cc1[N+](=O)[O-] the IC50 [5] was 7.38 µM (active) and the IC50 [6] was 9.96 µM (active).

In the case of Cc1ccc(S(=O)(=O)N(C)C)cc1NC(S)=NC(C)CCCC(C)C (configuration not stated), the EC50 [7] is reported as > 260 µM (inactive), the IC50 [5] is reported as 12.3 µM (active) and the IC50 [6] is reported as 9.82 µM (active).

In the case of CCn1c2ccccc2c2nnc(SCc3ccc(C(=O)OC)o3)nc21, the IC50 [1] is reported as > 66 µM (inactive) and the IC50 [2] is reported as > 66 µM (inactive).

For COc1ccc(C2C=C(c3ccc(C)cc3)Nc3ncnn32)cc1 (configuration not stated), the IC50 [1] was > 66 µM (inactive) and the IC50 [2] was > 66 µM (inactive).

With O=C(NC1CCCCC1)C1CC(=O)N(c2cccc([N+](=O)[O-])c2)C1 (configuration not stated) the IC50 [5] was 3.47 µM (active) and the IC50 [6] was 1.89 µM (active).

With CNC(=S)NN=C(C)c1ccc(OC)cc1O the IC50 [1] was > 66 µM (inactive) and the IC50 [2] was > 66 µM (inactive).

In the case of Cc1ccc(Oc2ccc(S(=O)(=O)Nc3ccc(C(=O)O)cc3)cc2)cc1, the AC50 [4] is reported as 0.714 µM (active).

CC(=O)c1cccc(OC(=O)Oc2cccc(C(C)=O)c2)c1 was tested, and the IC50 [5] was 10.5 µM (active) and the IC50 [6] was 6.11 µM (active).

For C[C@@H]1CCCCO[C@@H](CN(C)C(=O)C2CCCCC2)[C@H](C)CN([C@H](C)CO)C(=O)c2cc(NC(=O)Nc3ccc(F)cc3)ccc2O1, the AC50 [8] was 8.22 µM (active).

In the case of C[C@H](CO)N1C[C@H](C)[C@H](CN(C)Cc2ccc(Cl)c(Cl)c2)OCCCC[C@H](C)Oc2ccc(NC(=O)Nc3ccccc3)cc2C1=O, the AC50 [8] is reported as 11.9 µM (active).

N#Cc1cccc(-c2ccc3c(c2)[C@@H]2[C@@H](CCN2S(=O)(=O)c2ccc(F)cc2)[C@@H](CO)N3)c1 was tested, and the AC50 [8] was 6.61 µM (active).

In the case of C[C@H]1CCCCO[C@@H](CN(C)S(=O)(=O)c2cccs2)[C@@H](C)CN([C@@H](C)CO)C(=O)c2cc(NC(=O)NC3CCCCC3)ccc2O1, the AC50 [8] is reported as 4.79 µM (active).

CC(=O)Oc1ccc(/C=N/NC(=O)C2CCCN2S(=O)(=O)c2ccc(Cl)cc2)cc1 (configuration not stated) was tested, and the AC50 [4] was 12.7 µM (active).
